Like-named read-outs stand apart in the source and are kept apart here.
Molecular target: G protein-coupled receptor 88 (GPR88) (Homo sapiens, UniProt Q9GZN0)
Test: GPR88 functional assay: EC50 of Table 2 (GTPγS assay and cAMP HTRF assay described; table does not say which)
Type: cell-based
Conditions: read-out: Range (EC50)
Method: 96 well GTPγS assay plates were purchased from Perkin Elmer. Wheat Germ Agglutinin PVT SPA beads and ^35S-GTPγS were purchased from Amersham GDP, GTPγS and all buffer reagents were from Sigma. 384 well white NBS plates were purchased from corning. Pertussis toxin was purchased from Calbiochem. All cell culture reagents were purchased from Invitrogen. Forskolin was purchased from Sigma. The cAMP HTRF kit was purchased fron Cisbio International.
The GTPγS assay buffer consisted of 10 mM MgCl2, 180 mM NaCl, 200 uM GDP, 0.167 mg/mL DTT, 1 mM EGTA and 20 mM HEPES pH7.4. This buffer was used for dilution of membranes, beads, and ^35S GTPγS components. To each well of the 96 well assay plate 48 ul assay buffer, 2 ul of 100× compound, 50 ul membrane solution (0.2 ug/ul), 50 ul ^35S GTPγS solution (0.8 nM) and 50 ul of SPA beads (10 mg/mL). Non-specific binding was determined by the addition of cold GTPγS to control wells. The plates were sealed with clear sealing tape and incubated at room temperature for 1 hour. GTPγS activity was detected using a Wallac Micro-Beta Trilux liquid scintillation counter. Non-specific binding was determined using 10 uM cold GTPγS.
The cAMP HTRF assay is modified from the Cisbio International kit procedure 62AM4PEJ. Assay plates were prepared by stamping 0.1 ul of 100× compound stock solutions diluted in DMSO or DMSO alone into 384 well NBS plates. The cAMP HTRF assay was performed using cells in suspension. The cAMP HTRF assay buffer consisted of Hank's Balanced Salt Solution (HBSS), 2 mM CaCl2, 5 mM MgCl2, 20 mM HEPES and 1 mM 3-isobutyl-1-methylxanthine (IBMX) (added fresh at the time of assay). For pertussis toxin treatment pertussis toxin (100 ng/mL) was added to culture medium for 16 hours prior to assay. Confluent cells were disrupted with cell dissociation buffer count cells then centrifuged at 1000×g for 5 minutes. The cell pellet was resuspended in assay buffer alone for basal cAMP measurements or with 0.75 uM forskolin (added immediately prior to addition to wells) for addition to all other wells. Using a Multidrop 384 (Lab systems) 10 ul of cell suspension was added to each well containing compound or DMSO. The plates were incubated at room temperature for 30 minutes covered. During this time the cAMP standard curve was prepared as per manufacturer's instruction. At the end of the incubation 10 ul of anti-cAMP cryptate and 10 ul cAMP-XL, diluted in manufacturer's lysis buffer, were added to each well. The plated were incubated at room temperature for 60 minutes covered then read on an Envision plate reader (Perkin Elmer) and the 665 nm/620 nm fluorescence ratio determined Fluorescence ratio values were converted to molar cAMP concentrations from the standard curve using the GraphPad Prism program.

G protein-coupled receptor 88 (GPR88), sequence (Q9GZN0 whole entry, species assumed): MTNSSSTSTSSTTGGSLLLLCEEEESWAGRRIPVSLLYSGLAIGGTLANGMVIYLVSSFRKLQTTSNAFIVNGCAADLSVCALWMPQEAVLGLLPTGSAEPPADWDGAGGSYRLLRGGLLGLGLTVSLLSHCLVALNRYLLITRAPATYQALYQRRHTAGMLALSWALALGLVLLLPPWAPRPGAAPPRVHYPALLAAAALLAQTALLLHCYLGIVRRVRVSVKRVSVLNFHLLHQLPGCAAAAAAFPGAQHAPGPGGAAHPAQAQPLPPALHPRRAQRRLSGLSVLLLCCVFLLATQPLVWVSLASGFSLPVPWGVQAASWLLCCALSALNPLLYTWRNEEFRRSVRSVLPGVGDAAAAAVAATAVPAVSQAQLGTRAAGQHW

| Structure (SMILES) | EC50 (class symbol) [nM] | EC50 (exact value given) [nM] |
| --- | --- | --- |
| CCCC(C)COc1ccc([C@H](CN(C)C)NC(=O)[C@@H](C)c2ccccc2)cc1 (stereo partly drawn) [Example 6, (2S)-N-((1R)-2-(Dimethylamino)-1-(4-(2-methylpentyloxy)phenyl)ethyl)-2-phenylpropanamide] | 39 to 99 | – |
| CCCC(C)COc1ccc([C@H](CNCC2(N)CCCC2)NC(=O)[C@@H](C)c2ccccc2)cc1 (stereo partly drawn) [Example 15, (2S)-N-((1R)-2-((1-Aminocyclopentyl)methylamino)-1-(4-(2-methylpentyloxy)phenyl)ethyl)-2-phenylpropanamide] | 39 to 99 | – |
| CCCNC[C@H](NC(=O)[C@@H](C)c1ccccc1)c1ccc(OC[C@@H](C)CC)cc1 [Example 38, (S)-N-{(R)-1-[4-((S)-2-Methyl-butoxy)-phenyl]-2-propylamino-ethyl}-2-phenylpropionamide] | 100 to 200 | – |
| CCCC(C)COc1ccc([C@H](CO)NC(=O)[C@@H](CO)c2ccccc2)cc1 (stereo partly drawn) [Example 3, (2R)-3-Hydroxy-N-((1R)-2-hydroxy-1-(4-(2-methylpentyloxy)phenyl)ethyl)-2-phenylpropanamide] | 100 to 200 | – |
| CCCC(C)COc1ccc([C@H](CNCC2CC2)NC(=O)[C@@H](C)c2ccccc2)cc1 (stereo partly drawn) [Example 7, (2S)-N-((1R)-2-(Cyclopropylmethylamino)-1-(4-(2-methylpentyloxy)phenyl)ethyl)-2-phenylpropanamide] | 39 to 99 | – |
| CCCC(C)COc1ccc([C@H](CNCc2ccccn2)NC(=O)[C@@H](C)c2ccccc2)cc1 (stereo partly drawn) [Example 10, (2S)-N-((1R)-1-(4-(2-Methylpentyloxy)phenyl)-2-(pyridin-2-ylmethylamino)ethyl)-2-phenylpropanamide] | – | 110 |
| CC[C@H](C)COc1ccc([C@H](CN)NC(=O)[C@@H](C)c2ccccc2)cc1 [Example 37, (2S)-N-((1R)-2-Amino-1-[4-((S)-2-methylbutoxy)phenyl]-ethyl)-2-phenylpropionamide] | 39 to 99 | – |
| CCCC(C)COc1ccc([C@H](CNC(=O)[C@@H](N)[C@H](C)CC)NC(=O)[C@@H](C)c2ccccc2)cc1 (stereo partly drawn) [Example 27, (2S,3R)-2-Amino-3-methyl-N-((2R)-2-(4-(2-methylpentyloxy)phenyl)-2-((S)-2-phenylpropanamido)ethyl)pentanamide] | 100 to 200 | – |
| CCCC(C)COc1ccc([C@H](CNCc2c[nH]c3ccccc23)NC(=O)[C@@H](C)c2ccccc2)cc1 (stereo partly drawn) [Example 12, (2S)-N-((1R)-2-((1H-Indol-3-yl)methylamino)-1-(4-(2-methylpentyloxy)phenyl)ethyl)-2-phenylpropanamide] | 100 to 200 | – |
| CCCC(C)COc1ccc([C@H](CNC[C@H]2CCCN2)NC(=O)[C@@H](C)c2ccccc2)cc1 (stereo partly drawn) [Example 18, (2S)-N-((1R)-1-(4-(2-Methylpentyloxy)phenyl)-2-((R)-pyrrolidin-2-ylmethylamino)ethyl)-2-phenylpropanamide] | – | 154 |
| CCCC(C)COc1ccc([C@H](CNCC(C)CC)NC(=O)[C@@H](C)c2ccccc2)cc1 (stereo partly drawn) [Example 8, (2S)-N-((1R)-2-(2-Methylbutylamino)-1-(4-(2-methylpentyloxy)phenyl)ethyl)-2-phenylpropanamide] | 100 to 200 | – |
| CCCC(C)COc1ccc([C@H](CNC[C@@H]2CCCN2)NC(=O)[C@@H](C)c2ccccc2)cc1 (stereo partly drawn) [Example 16, (2S)-N-((1R)-1-(4-(2-Methylpentyloxy)phenyl)-2-((S)-pyrrolidin-2-ylmethylamino)ethyl)-2-phenylpropanamide] | – | 100 |
| CCCC(C)COc1ccc([C@H](CNC(=O)[C@@H](N)C(C)C)NC(=O)[C@@H](C)c2ccccc2)cc1 (stereo partly drawn) [Example 24, (2S)-2-Amino-3-methyl-N-((2R)-2-(4-(2-methylpentyloxy)phenyl)-2-((S)-2-phenylpropanamido)ethyl)butanamide] | 39 to 99 | – |
| CC(C)COc1ccc([C@@H](NC(=O)[C@@H](C)c2ccccc2)[C@H]2CCCN2)cc1 [Example 40, (S)-N-((R)-(4-Isobutoxyphenyl)((R)-pyrrolidin-2-yl)methyl)-2-phenylpropanamide] | – | 254 |
| CC[C@H](C)COc1ccc([C@@H](NC(=O)[C@@H](C)c2ccccc2)[C@@H](C)O)cc1 [Example 39, (S)-N-{(1R,2R)-2-Hydroxy-1-[4-((S)-2-methyl-butoxy)-phenyl]-propyl}-2-phenylpropionamide] | 100 to 200 | – |
| CCCC(C)COc1ccc([C@H](CNCc2cccnc2)NC(=O)[C@@H](C)c2ccccc2)cc1 (stereo partly drawn) [Example 13, (2S)-N-((1R)-1-(4-(2-Methylpentyloxy)phenyl)-2-(pyridin-3-ylmethylamino)ethyl)-2-phenylpropanamide] | 100 to 200 | – |
| CCCC(C)COc1ccc(C(CN2CCN(C)CC2)NC(=O)[C@@H](C)c2ccccc2)cc1 (mixture of isomers) [Example 36, (2S)-N-(1-(4-(2-Methylpentyloxy)phenyl)-2-(4-methylpiperazin-1-yl)ethyl)-2-phenylpropanamide] | 100 to 200 | – |

Results, then the compound that gave them:

| EC50 (class symbol) [nM] | EC50 (exact value given) [nM] | Structure (SMILES) |
| --- | --- | --- |
| 100 to 200 | – | CCCC(C)COc1ccc([C@H](CNCc2cc[nH]n2)NC(=O)[C@@H](C)c2ccccc2)cc1 (stereo partly drawn) [Example 11, (2S)-N-((1R)-2-((1H-Pyrazol-3-yl)methylamino)-1-(4-(2-methylpentyloxy)phenyl)ethyl)-2-phenylpropanamide] |
| 100 to 200 | – | CCCC(C)COc1ccc([C@H](CNCC2CCOC2)NC(=O)[C@@H](C)c2ccccc2)cc1 (stereo partly drawn) [Example 14, (2S)-N-((1R)-1-(4-(2-Methylpentyloxy)phenyl)-2-((tetrahydrofuran-3-yl)methylamino)ethyl)-2-phenylpropanamide] |
| 39 to 99 | – | CCCC(C)COc1ccc([C@H](CNC(=O)[C@@H](N)[C@@H](C)CC)NC(=O)[C@@H](C)c2ccccc2)cc1 (stereo partly drawn) [Example 19, (2S,3S)-2-Amino-3-methyl-N-((2R)-2-(4-(2-methylpentyloxy)phenyl)-2-((S)-2-phenylpropanamido)ethyl)pentanamide] |
| – | 54 | CCCC(C)COc1ccc([C@H](CN)NC(=O)[C@@H](C)c2ccccc2)cc1 (stereo partly drawn) [Example 5, (2S)-N-((1R)-2-Amino-1-(4-(2-methylpentyloxy)phenyl)ethyl)-2-phenylpropanamide] |
| 100 to 200 | – | CCCC(C)COc1ccc([C@H](CNC[C@H](C)N)NC(=O)[C@@H](C)c2ccccc2)cc1 (stereo partly drawn) [Example 17, (2S)-N-((1R)-2-((S)-2-Aminopropylamino)-1-(4-(2-methylpentyloxy)phenyl)ethyl)-2-phenylpropanamide] |
| 100 to 200 | – | CCCC(C)COc1ccc([C@H](CNC(=O)[C@@H](C)N)NC(=O)[C@@H](C)c2ccccc2)cc1 (stereo partly drawn) [Example 29, (2R)-2-Amino-N-((2R)-2-(4-(2-methylpentyloxy)phenyl)-2-((S)-2-phenylpropanamido)ethyl)propanamide] |
| 100 to 200 | – | CCCC(C)COc1ccc([C@H](CNC(=O)[C@H](N)CCC)NC(=O)[C@@H](C)c2ccccc2)cc1 (stereo partly drawn) [Example 31, (2R)-2-Amino-N-((2R)-2-(4-(2-methylpentyloxy)phenyl)-2-((S)-2-phenylpropanamido)ethyl)pentanamide] |
| 100 to 200 | – | CCCC(C)COc1ccc([C@H](CNC(=O)[C@H](N)C2CC2)NC(=O)[C@@H](C)c2ccccc2)cc1 (stereo partly drawn) [Example 30, (2S)-N-((1R)-2-((R)-2-Amino-2-cyclopropylacetamido)-1-(4-(2-methylpentyloxy)phenyl)ethyl)-2-phenylpropanamide] |
| 39 to 99 | – | CCCC(C)COc1ccc([C@H](CNC(=O)[C@@H](N)CCC)NC(=O)[C@@H](C)c2ccccc2)cc1 (stereo partly drawn) [Example 26, (2S)-2-Amino-N-((2R)-2-(4-(2-methylpentyloxy)phenyl)-2-((S)-2-phenylpropanamido)ethyl)pentanamide] |
| 100 to 200 | – | CCCC(C)COc1ccc([C@H](CNC(=O)[C@H](N)Cc2cscn2)NC(=O)[C@@H](C)c2ccccc2)cc1 (stereo partly drawn) [Example 34, (2R)-2-Amino-N-((2R)-2-(4-(2-methylpentyloxy)phenyl)-2-((S)-2-phenylpropanamido)ethyl)-3-(thiazol-4-yl)propanamide] |
| – | 89 | CCCC(C)COc1ccc([C@H](CNC(=O)[C@@H]2CCCN2)NC(=O)[C@@H](C)c2ccccc2)cc1 (stereo partly drawn) [Example 21, (2S)-N-((2R)-2-(4-(2-Methylpentyloxy)phenyl)-2-((S)-2-phenylpropanamido)ethyl)pyrrolidine-2-carboxamide] |

— patent publication US8304577B2, “Modulators of G protein-coupled receptor 88” (Bristol-Myers Squibb Company, priority 2009, dated 2012)
